Assay: Thiosuccinimide ring hydrolysis of IgG1 conjugates monitored by electrospray mass spectrometry
Type: physicochemical
Details: conjugated to reduced human IgG1; pH 7.4, 22° C.
Source text: The hydrolysis reaction rates of maleimido drug linkers following conjugation to antibody cysteines can be determined by mass spectrometry, as the hydrolyzed product has a molecular weight 18 daltons greater than the unhydrolyzed conjugate. Reduction of the interchain disulfides of a human IgG1 creates a single reduced cysteine on the light chain and three reduced cysteines on the heavy chain. The self-stabilizing maleimide drug-linker can then be conjugated to the reduced antibody at pH 7.4 and 22° C. and introduced to a high-resolution electrospray mass spectrometer via a reversed-phase HPLC column which separates the conjugated light and heavy chains. The masses of the conjugated light and heavy chains can thus be measured, and the peak intensities determined by standard mass spectrometry data processing software (e.g., MassLynx). By performing a series of injections over time, the disappearance of the peak corresponding to the mass of the original, unhydrolyzed conjugate and the appearance of the peak corresponding to the mass of the hydrolyzed conjugate can be monitored, the intensities of the peaks determined, and the percentage of hydrolyzed conjugate calculated at each timepoint. By plotting the hydrolysis percentage versus time, a curve is generated (e.g., using PRISM) which can be fit to a standard equation for exponential phenomena which includes a parameter for t1/2. […]

In the case of diaminopropionyl maleimide, the “time for hydrolysis reaction approaching 100% completion” value is reported as “about 2 hours”.

— US9504756B2, “Self-stabilizing linker conjugates” (priority 2012, dated 2016)
